These results are taken from patent US7977384B1, “Anticancer tobacco cembranoids” (The University of Louisiana at Monroe, priority 2007, dated 2011).

pIC50: −log10 of the molar value. Like-named read-outs stand apart in the source and are kept apart here. Ends that are not written are not given here.

In data set [1] the test system is PC-3M cells. The data set is described as follows: MTT proliferation assay, prostate cell line PC-3M. It counts as cell-based, human. As to conditions: 50 nM dose. A general note: Tetrazolium assays rely on reduction of a dye to a coloured formazan, in cell work by metabolically active cells.
Protocol: Proliferation of PC-3M MTT Assays. The growth of prostate cell line PC-3M was measured by 3-(4,5-dimethylthi-azol-2yl)-2,5-diphenyl tetrazolium bromide (MTT) assay. Exponentially growing cells were plated in a 96-well plate at a density of 8×10^3 cells per well and allowed to attach for 24 hours. Complete growth medium was replaced with 100 μl of RPMI serum-free medium (GIBCO-Invitrogen, NY) and culture continued at 37° C. under 5% CO2. After 24 hours of culture, the cells were treated with MTT solution at 37° C. for 4 hours. The color reaction was stopped by the addition of solubilization/stop solution (100 μl/well), and the incubation at 37° C. continued to completely dissolve the formazan product. Absorbance of the samples was determined at 595 nm with an ELISA plate reader (Bio-Rad, Hercules, Calif.).
The subject of data set [2] is PC-3M cells. The data set is described as follows: […] invasion assay. It counts as cell-based, human.
Protocol: Invasion assays were conducted in 24-well, two compartmented, invasion chambers sold under the trademark “[sequence]” and available from Becton Dickinson, Bedford, Mass. Exponentially growing prostate cancer cell line was serum-starved for 24 hours with basal RPMI medium containing no serum or growth factors (but containing 0.1% BSA, 10 mM HEPES, 4 mM L-glutamine, 100 IU/mL penicillin G and 100 mg/mL streptomycin). The cells were then harvested and seeded at a density of 25×10^3 cells/well in the upper insert of the [sequence] invasion chamber. The lower chamber received the chemo-attractant medium, which consisted of 90% basal RPMI medium and 10% conditioned medium from the cultures of PC-3M cells expressing active Gas protein. The incubations were carried out for 24 hours, after which the [sequence] […] The number of cells migrated on the outer bottom side of the insert was counted under the microscope in six or more randomly selected fields (magnification: 100×). The final results were expressed as mean +/− SEM per 100× field. […]
To correct this probability, the growth rate of PC-3M cells was determined under identical culture conditions. […] Mean percent increase in the cell number was determined at the end of the incubation period by counting the net increase in the number of cells. […]
In data set [3] the test system is PC-3M cells. The data set is described as follows: Transepithelial resistance (TER), stability of junctional complexes. The data set is classed as cell-based, human. The method, then: Stability of junctional complexes can be estimated by the measurement of transepithelial resistance (TER). Cells were plated at confluency and grown on six well Transwell filters (0.4 μm pore size) in complete medium. TER values were measured in duplicate wells in every 12 hours using EVOM voltohmmeter (World Precision Instruments). The TER values were normalized to the area of the monolayer filter, and calculated by subtracting the blank values from the filter and bathing medium. All cell culture media were supplemented with 25 mM Hepes, pH 7.4, and the integrity and cell density of monolayers were carefully monitored during TER measurement studies.

Data set [4] is described as follows: Substrate control (tested compound in blank media without microorganisms). The settings on record: 14 days. It counts as physicochemical. An excerpt: This conclusion was based on the rapid enzymatic actetate hydrolysis by most microbial species during biocatalytic screening while compound 22 was stable for 14 days in substrate control (tested compound in blank media without microorganisms).

Data set [5] relates to highly malignant +SA mouse mammary epithelial cell line. Nature of the data set: Antiproliferative MTT assay on +SA mammary epithelial cells. The data set is classed as cell-based. The settings on record: for pIC50: 4-day culture, MTT. How it is done:
The antiproliferative effects of semisynthetic derivatives were tested in culture on the highly malignant +SA mouse mammary epithelial cell line maintained on serum-free media and containing 10 ng/mL EGF and 10 μg/mL insulin as mitogens. […] After a 4-day culture period, viable +SA cell number was determined by the 3-(4,5-dimethylthi-azol-2yl)-2,5-diphenyl tetrazolium bromide (MTT) colorimetric assay.

Data set [6] concerns PC-3M cells. The data set is described as follows: Growth rate of PC-3M cells by cell counting (correction for the invasion assay). It counts as cell-based, human. As to conditions: CT 50 nM, 1-24 hours; vehicle control=1. How it is done:
To correct this probability, the growth rate of PC-3M cells was determined under identical culture conditions. 25×10^3 cells were plated at hourly intervals in six-well dishes and cultured with/without CT (50 nM) for 1-24 hours. Mean percent increase in the cell number was determined at the end of the incubation period by counting the net increase in the number of cells. […] This correction was applied to the results of invasion assays.

For data set [7], the system named is PC-3M cells. The data set is described as follows: Permeability assay (paracellular diffusion of dextran). It counts as cell-based, human. As to conditions: CT alone. The method, then: Permeability assay (Paracellular diffusion of Dextran). Cells were plated at confluency and grown on 12 well Transwell filters in complete medium for optimum TER development. Tetramethyl-rhodamine-dextran, with an average molecular mass of 4 kDa (available from Sigma in St. Louis, Mo.) dissolved in Hanks' Balanced Salt Solution (HBSS) to a concentration of 1 mg/ml was added to the upper chamber. The lower chamber was replaced with HBSS. At various time intervals, 100 μl aliquots were collected from the lower chamber and assayed […] spectrophotometer using excitation 530 and emission 590.

The mark [8] stands for this setting: 15-40 μM dose, compared to vehicle controls.

Turning to `C/C1=C\[C@H](O)C[C@@](C)(O)/C=C/[C@H](C(C)C)C[C@@H](O)/C(C)=C/CC1` [Compound 7, (1S,2E,4R,6R,7E,11E,13R)-2,7,11-cembratriene-4,6,13-triol], the cytotoxicity entry in the data set on PC-3M cells [1] was “without cytotoxicity”. In addition, in the data set on PC-3M cells [2] (50 nM dose), the anti-invasive activity entry is “potent anti-invasive activity”.
In the case of `CCNC(=O)O[C@H]1/C=C(/C)CC/C=C(\C)CC[C@@H](C(C)C)/C=C/[C@](C)(O)C1` [Compound 9, 6-O-[N-(ethyl)carbamoyl](1S,2E,4R,6R,7Z,11E)-2,7,11-cembratriene-4,6-diol], the “stabilization of junctional complexes” value in the data set on PC-3M cells [3] (baseline and CT-stimulated TER and paracellular permeability) is recorded as “stabilized junctional complexes”.
With `CC(=O)O[C@H]1/C=C(/C)CC/C=C(\C)CC[C@@H](C(C)C)/C=C/[C@@](C)(O)C1` [Compound 22, 6-O-acetyl-(1S,2E,4S,6R,7Z,11E)-2,7,11-cembratriene-4,6-diol], the “stability in substrate control” value in data set [4] is reported as “stable”. Besides, the antiproliferative activity entry in data set [5] is “reduced activity”.
In general, pIC50 refers to −log10 of the IC50, conventionally taken in molar units. Low values mean a high IC50, high ones a low IC50. On to `CC(=O)O[C@H]1/C=C(\C)CC/C=C(\C)[C@H](O)C[C@@H](C(C)C)/C=C/[C@@](C)(O)C1` [Compound 25, (1S,2E,4S,6R,7E,11E,13R)-2,7,11-cembratriene-4,6,13-triol-6-O-acetate], for which the pIC50 in data set [5] was 4.52. Also, the antiproliferative activity result in data set [5] (setting [8]) was “potent antiproliferative activity”.
For `CC(=O)O[C@H]1/C=C(\C)CC/C=C(\C)[C@@H](O)C[C@@H](C(C)C)/C=C/[C@@](C)(O)C1` [Compound 26, (1S,2E,4S,6R,7E,11E,13S)-2,7,11-cembratriene-4,6,13-triol-6-O-acetate], in data set [5], the antiproliferative activity entry is “much more active than the 13R” and the pIC50 is 4.70. For the same compound, in data set [5] (setting [8]), the antiproliferative activity entry was “potent antiproliferative activity”.
For the compound `CC(=O)O[C@H]1/C=C(\C)CC[C@@H]2OC(=N)S[C@@]2(C)CC[C@@H](C(C)C)/C=C/[C@@](C)(O)C1` [Compound 28, 6-O-acetyl-(1S,2E,4S,6R,7Z,11S,12S)-2,7-cembradiene-11,12-oxathiaol-21-imino-4,6-diol], the antiproliferative activity entry in data set [5] is given as “devoid of activity”.
Still for that read-out and setting: the same measure for `C/C1=C\C(=O)C[C@](C)(O)/C=C/[C@H](C(C)C)CC/C(C)=C/CC1` [Compound 29, (1S,2E,4S,7E,11E)-2,7,11-cembratriene-4-ol-6-one]: “low antiproliferative activity”.
For the compound `C/C1=C/C(=O)C[C@](C)(O)/C=C/[C@H](C(C)C)CC/C(C)=C/CC1` [Compound 30, (1S,2E,4S,6R,7E,11E)-2,7,11-cembratriene-4-ol-6-one], the antiproliferative activity entry is “potent antiproliferative agent” in data set [5] and “potent antiproliferative activity” in data set [5] (setting [8]). For the same compound, the pIC50 in data set [5] (Mus musculus, Epithelial cell, 96 h) was 4.82. The “activity relative to parent compound 21” value in data set [5] (at higher doses) is “no more active”.
For `CC(=O)/C=C/C(CC/C(C)=C/CC/C(C)=C/C(C)=O)C(C)C` (stereo not shown) [Compound 31, (3E,7E,12E)-11-isopropyl-4,8-dimethylpentadeca-3,7,12-triene-2,14-dione], the antiproliferative activity entry in data set [5] (setting [8]) was “potent antiproliferative activity”.
Compound `CC(C)=CCC/C(C)=C/CC/C(C)=C/CC[C@]1(C)CCc2cc(O)cc(C)c2O1` [δ-tocotrienol, reference compound] gave a negative-log IC50 (pIC50) in data set [5] of 5.15.
In the case of “Calcitonin (CGNLSTCMLGTYTQDFNKFHTFPQTAIGVGAP; ends and bridges not checked; cysteine pairing not given here; UniProt P01258 85-116, looked up) [CT, reference compound]”, the “relative CT-induced increase in cell number, pooled results of all time points” value with PC-3M cells [6] is listed as 1.19. Further, the “effect on TER of PC-3M cell cultures” value in the data set with PC-3M cells [3] (50 nM CT) is listed as “dramatic reduction”. Also, the “increase in the number of invaded cells” value in the data set with PC-3M cells [2] (pooled data of multiple experiments) is on record as “two-fold”. Moreover, the “paracellular permeability of PC-3M cells” value with PC-3M cells [7] is given as “increased”.
